Data set [1] deals with NCI-H1792. The experiment in a line: Antiproliferative activity against human NCI-H1792 cells harboring heterozygous KRAS G12C mutant assessed as inhibition of cell growth incubated for 72 hrs by MTT assay. Type of data set: functional, cell-based. To be noted: NCI-H1792, 72 h. Background: Formazan colour is commonly taken as a measure of viable cells.
Data set [2] is described as follows: Tmax in NOD-SCID mouse at 15 mg/kg, ip administered as single dose and measured upto 48 hrs by HPLC/MS analysis. Type of data set: ADME, organism-based. To be noted: in vivo.
The nature of data set [3]: Clearance in NOD-SCID mouse at 15 mg/kg, ip administered as single dose and measured upto 48 hrs by HPLC/MS analysis. The class given is ADME, organism-based. To be noted: in vivo.
In data set [4] the test system is NCI-H1792. The experiment in a line: Antiproliferative activity against human NCI-H1792 cells harboring KRAS G12C mutant assessed as reduction in cell viability at 2.5 uM incubated for 72 hrs by MTT assay. The class given is functional, cell-based.
Data set [5] in a line: Antiproliferative activity against human HCA-7 cells harboring wild type KRAS assessed as inhibition of cell growth incubated for 72 hrs by MTT assay. To be noted: HCA-7, 72 h. The class given is functional, cell-based, HCA7.
A short description of data set [6]: Toxicity in immunodeficient NOD-SCID mouse xenografted with human LCLC-103H cells harboring wild type KRAS assessed as body weight at 5 to 30 mg/kg, ip administered for 5 times at 5 mg/kg in first week followed by administration at 20 mg/kg 5 times in second week and further administered 30 mg/kg 3 times in third week measured 17 days post treatment initiation and 35 days post tumor transplantation (reference value: 2.6 g). To be noted: in vivo, 408 h, dose 5-30 mg/kg, time 17 day. The class given is organism-based. For orientation: In xenograft studies the graft and the host belong to different species.

Data set [7] in a line: Cytotoxicity against human CCD-986Sk cells assessed as inhibition of cell growth incubated for 72 hrs by MTT assay. The class given is toxicity, cell-based.
Data set [8] can be described thus: Cytotoxicity against HUVEC cells immortalized with TERT assessed as inhibition of cell growth incubated for 72 hrs by MTT assay. The class given is toxicity, cell-based. As to conditions: human.
A short description of data set [9]: Half life in NOD-SCID mouse at 15 mg/kg, ip administered as single dose and measured upto 48 hrs by HPLC/MS analysis. Type of data set: ADME, organism-based. To be noted: in vivo.
Data set [10] in a line: Volume of distribution in NOD-SCID mouse at 15 mg/kg, ip administered as single dose and measured upto 48 hrs by HPLC/MS analysis. The class given is ADME, organism-based. As to conditions: in vivo.
Data set [11] in a line: AUCt in NOD-SCID mouse at 15 mg/kg, ip administered as single dose and measured upto 48 hrs by HPLC/MS analysis. The class given is ADME, organism-based. Also noted: dose 15 mg/kg, time < 48 hrs, route ip. As to conditions: in vivo.
Data set [12] relates to LCLC-103H cell line. The experiment in a line: Antitumor activity against human LCLC-103H cells harboring wild type KRAS xenografted in immunodeficient NOD-SCID mouse assessed as tumor volume at 5 to 30 mg/kg, ip administered for 5 times at 5 mg/kg in first week followed by administration at 20 mg/kg 5 times in second week and further administered 30 mg/kg 3 times in third week measured 17 days post treatment initiation and 35 days post tumor transplantation by digital caliper based analysis. The class given is functional. To be noted: dose 5-30 mg/kg, time 17 day.

Data set [13] relates to NCI-H1792. The experiment in a line: Antiproliferative activity against human NCI-H1792 cells harboring KRAS G12C mutant assessed as cell viability at 25 uM incubated for 72 hrs by MTT assay relative to control. As to conditions: read-out: Activity. Type of data set: functional.
Data set [14] is filed under the species Homo sapiens. In words: Inhibition of GDP-bound human KRAS 149stop G12C mutant expressed in Escherichia coli BL21 Rosetta cells assessed as inhibition of SOS1 mediated nucleotide exchange at 250 uM measured after 24 hrs by fluorescence based analysis.
The test system of a further data set is NCI-H358. The experiment in a line: Antiproliferative activity against human NCI-H358 cells harboring heterozygous KRAS G12C mutant assessed as inhibition of cell growth incubated for 72 hrs by MTT assay. To be noted: NCI-H358, 72 h. The class given is functional, cell-based.
The test system of a further data set is MIA PaCa-2. In words: Antiproliferative activity against human MIA PaCa-2 cells harboring homozygous KRAS G12C mutant assessed as inhibition of cell growth incubated for 72 hrs by MTT assay. The class given is functional, cell-based. As to conditions: MIA PaCa-2, 72 h.
Data set [15] is described as follows: Cmax in NOD-SCID mouse at 15 mg/kg, ip administered as single dose and measured upto 48 hrs by HPLC/MS analysis. The class given is ADME, organism-based. Also noted: time < 48 hrs, dose 15 mg/kg, route ip. As to conditions: in vivo.
Data set [16] concerns NCI-H1792. The experiment in a line: Antitumor activity against human NCI-H1792 cells harboring KRAS G12C mutant xenografted in immunodeficient NOD-SCID mouse assessed as reduction in tumor growth at 5 to 30 mg/kg, ip administered for 5 times at 5 mg/kg in first week followed by administration at 20 mg/kg 5 times in second week and further administered 30 mg/kg 3 times in third week measured 17 days post treatment initiation and 35 days post tumor transplantation by digital caliper based analysis relative to control. Details: scale not given: the % may be the effect or the level left. As to conditions: dose 5-30 mg/kg, time 17 day. The class given is functional.

Data set [17] in a line: Toxicity in immunodeficient NOD-SCID mouse xenografted with human NCI-H1792 cells harboring KRAS G12C mutant assessed as body weight at 5 to 30 mg/kg, ip administered for 5 times at 5 mg/kg in first week followed by administration at 20 mg/kg 5 times in second week and further administered 30 mg/kg 3 times in third week measured 17 days post treatment initiation and 35 days post tumor transplantation (reference value: 6.6 g). The class given is organism-based. As to conditions: in vivo, 408 h, dose 5-30 mg/kg, time 17 day.

Data set [18] is filed under the species Homo sapiens. The experiment in a line: Inhibition of GDP-bound human KRAS 149stop G12C mutant expressed in Escherichia coli BL21 Rosetta cells assessed as inhibition of EDTA mediated nucleotide exchange at 250 uM measured after 24 hrs by fluorescence based analysis.
The species entered for data set [19] is Homo sapiens. The experiment in a line: Selectivity ratio of IC50 for human MRC5 cells to IC50 for human MIA PaCa-2 cells harboring homozygous KRAS G12C mutant.
A short description of data set [20]: Cytotoxicity against human MRC5 cells assessed as inhibition of cell growth incubated for 72 hrs by MTT assay. Type of data set: toxicity, cell-based.
Data set [21] is described as follows: Selectivity ratio of IC50 for human LCLC-103H cells harboring wild type KRAS to IC50 for human A549 cells harboring homozygous KRAS G12S mutant. The class given is functional.
Data set [22] in a line: Selectivity ratio of IC50 for human LCLC-103H cells harboring wild type KRAS to IC50 for human SW1573 cells harboring homozygous KRAS G12C mutant. The class given is functional.
A further data set has as its system PANC-1. In words: Antiproliferative activity against human PANC-1 cells harboring heterozygous KRAS G12D mutant assessed as inhibition of cell growth incubated for 72 hrs by MTT assay. Type of data set: functional, cell-based. As to conditions: PANC-1, 72 h.
A short description of data set [23]: Selectivity ratio of IC50 for human BXPC-3 cells harboring wild type KRAS to IC50 for human MIA PaCa-2 cells harboring homozygous KRAS G12C mutant. Type of data set: functional.
Data set [24] in a line: Selectivity ratio of IC50 for human LCLC-103H cells harboring wild type KRAS to IC50 for human NCI-H358 cells harboring heterozygous KRAS G12C mutant. The class given is functional.
A further data set has as its system A549. In words: Antiproliferative activity against human A549 cells harboring homozygous KRAS G12S mutant assessed as inhibition of cell growth incubated for 72 hrs by MTT assay. The class given is functional, cell-based. To be noted: A549, 72 h.
Data set [25] can be described thus: Selectivity ratio of IC50 for human LCLC-103H cells harboring wild type KRAS to IC50 for human NCI-H1792 cells harboring […] KRAS G12C mutant. The class given is functional.
The subject of the next data set is SW1573. In words: Antiproliferative activity against human SW1573 cells harboring homozygous KRAS G12C mutant assessed as inhibition of cell growth incubated for 72 hrs by MTT assay. The class given is functional, cell-based. As to conditions: SW1573, 72 h.
A further data set concerns BXPC-3. In words: Antiproliferative activity against human BXPC-3 cells harboring wild type KRAS assessed as inhibition of cell growth incubated for 72 hrs by MTT assay. Type of data set: functional, cell-based. To be noted: BXPC-3, 72 h.
Data set [26] has as its system LCLC-103H cell line. The experiment in a line: Antiproliferative activity against human LCLC-103H cells harboring wild type KRAS assessed as inhibition of cell growth incubated for 72 hrs by MTT assay. Type of data set: functional, cell-based.
The species named for data set [27] is Homo sapiens. The experiment in a line: Selectivity ratio of IC50 for human MRC5 cells to IC50 for human NCI-H1792 cells harboring homozygous KRAS G12C mutant.
Data set [28] can be described thus: Selectivity ratio of IC50 for human BXPC-3 cells harboring wild type KRAS to IC50 for human PANC-1 cells harboring heterozygous KRAS G12D mutant. The class given is functional.
The species entered for data set [29] is Homo sapiens. In words: Selectivity ratio of IC50 for human MRC5 cells to IC50 for human NCI-H358 cells harboring heterozygous KRAS G12C mutant.
A short description of data set [30]: Selectivity ratio of IC50 for human MRC5 cells to IC50 for human SW1573 cells harboring homozygous KRAS G12C mutant. The class given is toxicity. To be noted: MRC5 cells versus SW1573 cells (homozygous KRAS G12C mutant), read-out: Ratio IC50.
For a further data set, the system named is SW480. The experiment in a line: Antiproliferative activity against human SW480 cells harboring homozygous KRAS G12V mutant assessed as inhibition of cell growth incubated for 72 hrs by MTT assay. The class given is functional, cell-based. To be noted: SW480, 72 h.

Each structure is given as a SMILES string. Calls of active or inactive are those of the source. The calls are words filed in the database; no cut-off is given here.

For `C=CC(=O)N1CCN(c2ncnc3c(F)c(-c4c(O)cccc4F)c(Cl)cc23)CC1`, the IC50 (commonly the concentration at which inhibition is half-maximal) amounted to 10.9 µM in the data set with NCI-H1792 [1], 23.4 µM in data set [5], 0.3 µM with NCI-H358 and 0.5 µM in the data set on MIA PaCa-2. Moreover, the Tmax – broadly, the time from dosing to the highest level – in data set [2] is 0.25 h. Also, the CL/F (usually the apparent clearance, not corrected for the fraction that reaches the circulation) in data set [3] was 1.37 mL/min. The outcome in the data set on NCI-H1792 [4] was Active. Further, the Activity stood at 0.8 g in data set [6], 7.9 mm3 with LCLC-103H cell line [12], 17.9% in the data set on NCI-H1792 [16] and 3.7 g in data set [17]. Also, the IC50 at 72 h in [7] stood at 52.2 µM; in data set [8] it was 0.7 µM. Further, the half-life (in general, the time in which the quantity being followed falls by half) in data set [9] is 2.9 h. In data set [10], this compound displayed a Vd of 363 mL. Also, in data set [11], the AUC(0-t) (as a rule, exposure summed from dosing to a finite time, without extrapolation to infinity) at 48 h worked out at 3.73 µg·h/mL. Moreover, in the data set with NCI-H1792 [13], the viability at 25 µM was below 50%. Besides, the inhibition entry in the data set filed under Homo sapiens [14] and in the data set listed under Homo sapiens [18] was “Active” in each case. Further, the highest concentration (Cmax) (as a rule, the peak of the concentration-time curve) in data set [15] was determined as 5.85 µg/mL.
For the compound `C=CC(=O)N1CC(N2CCN(C(=O)CNc3cc(C4(C)CC4)c(Cl)cc3O)CC2)C1`, the Ratio IC50 in the data set listed under Homo sapiens [19] was found to be 13; in data set [21], 1.2; in data set [22], 1.6; in data set [23], 6.4; in [24], 6; in data set [25], 1.5. Besides, the Ratio IC50 came to 2.7 in the data set listed under Homo sapiens [27], 0.6 in data set [28] and 11 in the data set listed under Homo sapiens [29]. Also, the IC50 in the data set with NCI-H1792 [1] worked out at 27.9 µM; in the data set on PANC-1, 58.2 µM; in the data set on A549, 35.2 µM; in the data set with NCI-H358, 6.9 µM; in the data set on SW1573, 25.9 µM; with BXPC-3, 36.8 µM. Besides, the results for the IC50 in the data set on LCLC-103H cell line [26], in the data set with MIA PaCa-2 and in the data set with SW480 were 41.5 µM, 5.8 µM and 27.8 µM, respectively. Also, the outcome with NCI-H1792 [4] was Active. Besides, in data set [20], the half-inhibitory concentration (IC50) at 72 h was found to be 75.3 µM. Further, the viability at 25 µM in the data set with NCI-H1792 [13] was below 50%. The inhibition result in the data set filed under Homo sapiens [14] and in the data set filed under Homo sapiens [18] was “Active” in each case. Besides, the selectivity ratio in [30] is 2.9.
